According to ChEMBL document CHEMBL1629667, “Activities of dalbavancin against a worldwide collection of 81,673 gram-positive bacterial isolates” (2009):
Converted amounts (≈) assume the structure as drawn.

What was measured:
Assay type in all cases: functional
Streptococcus [1] = assay: Antimicrobial activity against viridans group Streptococcus assessed as percent resistant isolates by broth microdilution method
Streptococcus [2] = assay: Antimicrobial activity against Beta-hemolytic Streptococcus by broth microdilution method
Streptococcus [3] = assay: Antimicrobial activity against viridans group Streptococcus by broth microdilution method
Streptococcus [4] = assay: Antimicrobial activity against Beta-hemolytic Streptococcus assessed as percent susceptible isolate by broth microdilution method
Streptococcus [5] = assay: Antimicrobial activity against viridans group Streptococcus assessed as percent susceptible isolate by broth microdilution method
Streptococcus [6] = assay: Antimicrobial activity against Beta-hemolytic Streptococcus assessed as percent resistant isolates by broth microdilution method
Staphylococcus aureus [7] = assay: Antimicrobial activity against Oxacillin-susceptible Staphylococcus aureus assessed as percent resistant isolates by broth microdilution method
Staphylococcus aureus [8] = assay: Antimicrobial activity against Oxacillin-resistant Staphylococcus aureus assessed as percent resistant isolate by broth microdilution method
Staphylococcus aureus [9] = assay: Antimicrobial activity against Oxacillin-susceptible Staphylococcus aureus by broth microdilution method
Staphylococcus aureus [10] = assay: Antimicrobial activity against Oxacillin-resistant Staphylococcus aureus by broth microdilution method
Staphylococcus [11] = assay: Antimicrobial activity against Oxacillin-susceptible coagulase-negative Staphylococcus by broth microdilution method
Staphylococcus [12] = assay: Antimicrobial activity against Oxacillin-resistant coagulase-negative Staphylococcus by broth microdilution method
Staphylococcus aureus [13] = assay: Antimicrobial activity against Oxacillin-susceptible Staphylococcus aureus assessed as percent susceptible isolate by broth microdilution method
Staphylococcus aureus [14] = assay: Antimicrobial activity against Oxacillin-resistant Staphylococcus aureus assessed as percent susceptible isolate by broth microdilution method
Staphylococcus [15] = assay: Antimicrobial activity against Oxacillin-susceptible coagulase-negative Staphylococcus assessed as percent susceptible isolate by broth microdilution method
Staphylococcus [16] = assay: Antimicrobial activity against Oxacillin-resistant coagulase-negative Staphylococcus assessed as percent susceptible isolate by broth microdilution method
Staphylococcus [17] = assay: Antimicrobial activity against Oxacillin-susceptible coagulase-negative Staphylococcus assessed as percent resistant isolate by broth microdilution method
Staphylococcus [18] = assay: Antimicrobial activity against Oxacillin-resistant coagulase-negative Staphylococcus assessed as percent resistant isolate by broth microdilution method
Enterococcus faecalis [19] = assay: Antimicrobial activity against Vancomycin-susceptible Enterococcus faecalis by broth microdilution method
Enterococcus faecalis [20] = assay: Antimicrobial activity against Vancomycin-nonsusceptible Enterococcus faecalis by broth microdilution method
Enterococcus faecium [21] = assay: Antimicrobial activity against Vancomycin-susceptible Enterococcus faecium by broth microdilution method
Enterococcus faecium [22] = assay: Antimicrobial activity against Vancomycin-nonsusceptible Enterococcus faecium by broth microdilution method
Enterococcus faecalis [23] = assay: Antimicrobial activity against Vancomycin-susceptible Enterococcus faecalis assessed as percent susceptible isolate by broth microdilution method
Enterococcus faecalis [24] = assay: Antimicrobial activity against Vancomycin-nonsusceptible Enterococcus faecalis assessed as percent susceptible isolate by broth microdilution method
Enterococcus faecium [25] = assay: Antimicrobial activity against Vancomycin-susceptible Enterococcus faecium assessed as percent susceptible isolate by broth microdilution method
Enterococcus faecium [26] = assay: Antimicrobial activity against Vancomycin-nonsusceptible Enterococcus faecium assessed as percent susceptible isolate by broth microdilution method

| Compound | Activity (Streptococcus [1]) [%] | MIC (Streptococcus [2]) [µg/mL] | MIC50 (Streptococcus [2]) [µg/mL] | MIC90 (Streptococcus [2]) [µg/mL] | MIC (Streptococcus [3]) [µg/mL] | MIC50 (Streptococcus [3]) [µg/mL] | MIC90 (Streptococcus [3]) [µg/mL] | Activity (Streptococcus [4]) [%] | Activity (Streptococcus [5]) [%] | Activity (Staphylococcus aureus [7]) [%] | Activity (Staphylococcus aureus [8]) [%] | MIC50 (Staphylococcus aureus [9]) [µg/mL] | MIC90 (Staphylococcus aureus [9]) [µg/mL] | MIC50 (Staphylococcus aureus [10]) [µg/mL] | MIC (Staphylococcus [11]) [µg/mL] | MIC50 (Staphylococcus [11]) [µg/mL] | MIC90 (Staphylococcus [11]) [µg/mL] | Activity (Staphylococcus aureus [13]) [%] | Activity (Staphylococcus [15]) [%] | Activity (Staphylococcus [16]) [%] | also measured |
| --- | --- | --- | --- | --- | --- | --- | --- | --- | --- | --- | --- | --- | --- | --- | --- | --- | --- | --- | --- | --- | --- |
| CO/N=C(\C(=O)N[C@@H]1C(=O)N2C(C(=O)O)=C(CSc3nc(=O)c(O)nn3C)CS[C@H]12)c1csc(N)n1 [CEFTRIAXONE] | 4.3 | 0.25 (≈ 0.451 µM) | 0.25 (≈ 0.451 µM) | 0.25 (≈ 0.451 µM) | 0.25 (≈ 0.451 µM) | 0.25 (≈ 0.451 µM) | 1 (≈ 1.8 µM) | 99.9 | 92.5 | – | – | – | – | – | – | – | – | – | – | – | – |
| CC1(C)S[C@@H]2[C@H](NC(=O)Cc3ccccc3)C(=O)N2[C@H]1C(=O)O [PENICILLIN G] | 6 | 0.015 (≈ 0.0449 µM) | 0.015 (≈ 0.0449 µM) | 0.06 (≈ 0.179 µM) | – | 0.06 (≈ 0.179 µM) | 1 (≈ 2.99 µM) | 99.9 | 71.7 | – | – | – | – | – | – | – | – | – | – | – | – |
| C[C@H]1COc2c(N3CCN(C)CC3)c(F)cc3c(=O)c(C(=O)O)cn1c23.C[C@H]1COc2c(N3CCN(C)CC3)c(F)cc3c(=O)c(C(=O)O)cn1c23.O [LEVOFLOXACIN] | 3.6 | 0.5 | 0.5 | 1 | – | 1 | 2 | 98.6 | 95.7 | 6.7 | 80.1 | ≤ 0.5 | ≤ 0.5 | > 4 | ≤ 0.5 | ≤ 0.5 | 4 | 92.8 | 87.5 | 31.8 | Activity (Streptococcus [6]): 8.2%; MIC (Staphylococcus aureus [9]): ≤ 0.5 µg/mL; MIC90 (Staphylococcus aureus [10]): > 4 µg/mL; MIC50 (Staphylococcus [12]): 4 µg/mL; MIC90 (Staphylococcus [12]): > 4 µg/mL; Activity (Staphylococcus aureus [14]): 18.3%; Activity (Staphylococcus [17]): 11.1%; Activity (Staphylococcus [18]): 61.4% |
| CC[C@H]1OC(=O)[C@H](C)[C@@H](O[C@H]2C[C@@](C)(OC)[C@@H](O)[C@H](C)O2)[C@H](C)[C@@H](O[C@@H]2O[C@H](C)C[C@H](N(C)C)[C@H]2O)[C@](C)(O)C[C@@H](C)C(=O)[C@H](C)[C@@H](O)[C@]1(C)O [ERYTHROMYCIN] | 41.7 | 0.25 (≈ 0.341 µM) | 0.25 (≈ 0.341 µM) | 2 (≈ 2.73 µM) | 0.25 (≈ 0.341 µM) | 0.25 (≈ 0.341 µM) | 2 (≈ 2.73 µM) | 79.6 | 56 | 20.7 | 88.8 | ≤ 0.25 | > 2 | > 2 | ≤ 0.25 | ≤ 0.25 | > 2 | 78.7 | 66 | 24.1 | MIC (Staphylococcus aureus [9]): ≤ 0.25 µg/mL; MIC50 (Staphylococcus [12]): > 2 µg/mL; Activity (Staphylococcus aureus [14]): 10.9%; Activity (Staphylococcus [17]): 33.6%; Activity (Staphylococcus [18]): 75.4% |
| CCC[C@@H]1C[C@@H](C(=O)N[C@@H]([C@H]2O[C@H](SC)[C@H](O)[C@@H](O)[C@H]2O)[C@H](C)Cl)N(C)C1 [CLINDAMYCIN] | 9.5 | 0.25 (≈ 0.588 µM) | 0.25 (≈ 0.588 µM) | 0.25 (≈ 0.588 µM) | 0.25 (≈ 0.588 µM) | 0.25 (≈ 0.588 µM) | 0.5 (≈ 1.18 µM) | 91.4 | 89.8 | 4 | 52.1 | ≤ 0.25 | ≤ 0.25 | > 2 | ≤ 0.25 | ≤ 0.25 | ≤ 0.25 | 95.8 | 93.5 | 57 | Activity (Streptococcus [6]): 19.9%; MIC (Staphylococcus aureus [9]): ≤ 0.25 µg/mL; MIC90 (Staphylococcus aureus [10]): > 2 µg/mL; MIC90 (Staphylococcus [12]): > 2 µg/mL; Activity (Staphylococcus aureus [14]): 47.8%; Activity (Staphylococcus [17]): 5.7%; Activity (Staphylococcus [18]): 41.7% |
| CN[C@H]1C(=O)N[C@@H]2Cc3ccc(cc3)Oc3cc4cc(c3O[C@@H]3O[C@H](C(=O)O)[C@@H](O)[C@H](O)[C@H]3NC(=O)CCCCCCCCC(C)C)Oc3ccc(cc3Cl)[C@@H](O)[C@@H]3NC(=O)[C@H](NC(=O)[C@@H]4NC(=O)[C@@H](NC2=O)c2cc(cc(O)c2Cl)Oc2cc1ccc2O)c1ccc(O)c(c1)-c1c(O[C@H]2O[C@H](CO)[C@@H](O)[C@H](O)[C@@H]2O)cc(O)cc1[C@@H](C(=O)NCCCN(C)C)NC3=O [DALBAVANCIN] | – | 0.03 (≈ 0.0165 µM) | 0.03 (≈ 0.0165 µM) | 0.03 (≈ 0.0165 µM) | 0.03 (≈ 0.0165 µM) | 0.03 (≈ 0.0165 µM) | 0.03 (≈ 0.0165 µM) | 100 | 100 | – | – | 0.06 (≈ 0.033 µM) | 0.06 (≈ 0.033 µM) | 0.06 (≈ 0.033 µM) | ≤ 0.03 | ≤ 0.03 | 0.06 (≈ 0.033 µM) | 100 | 99.8 | 99.2 | MIC90 (Staphylococcus aureus [10]): 0.06 µg/mL (≈ 0.033 µM); MIC90 (Staphylococcus [12]): 0.12 µg/mL (≈ 0.0661 µM); MIC (Enterococcus faecalis [19]): ≤ 0.03 µg/mL; MIC50 (Enterococcus faecalis [19]): ≤ 0.03 µg/mL; MIC90 (Enterococcus faecalis [19]): 0.06 µg/mL (≈ 0.033 µM); MIC50 (Enterococcus faecalis [20]): > 4 µg/mL; MIC90 (Enterococcus faecalis [20]): > 4 µg/mL; MIC50 (Enterococcus faecium [21]): 0.06 µg/mL (≈ 0.033 µM); MIC90 (Enterococcus faecium [21]): 0.12 µg/mL (≈ 0.0661 µM); MIC50 (Enterococcus faecium [22]): > 4 µg/mL; MIC90 (Enterococcus faecium [22]): > 4 µg/mL; Activity (Enterococcus faecalis [23]): >99.9%; Activity (Enterococcus faecalis [24]): 27.8%; Activity (Enterococcus faecium [25]): 99.6%; Activity (Enterococcus faecium [26]): 11.4% |
